Reference: patent US12559474B2, “Triazine derivatives having virus replication inhibitory activity and pharmaceutical composition comprising the same” (priority 2021, dated 2026)
pEC50, pIC50: −log10 of the molar value. Like-named read-outs stand apart in the source and are kept apart here.

Assays:
SARS-CoV-2 = experiment: microbe, parasite or virus in culture; format: cell-based; settings: for pEC50: Severe acute respiratory syndrome coronavirus 2, VeroE6/TMPRSS2, 72 h, 50% SARS-CoV-2 infected cell death inhibitory concentration, VeroE6/TMPRSS2 cells, 3 days culture
SARS-CoV-2 3CL protease = SARS-CoV-2 3CL protease (Severe acute respiratory syndrome coronavirus 2, UniProt P0DTD1); experiment: biochemical; settings: 50% SARS-CoV-2 3CL protease inhibitory concentration, read-out: IC50

**Q.** What does the source list for O=C1CCC(Nc2nc(=O)n(Cc3ccc[nH]c3=O)c(=O)n2Cc2cc(F)c(F)c(F)c2)CN1 (racemic) [Compound I-0133]?
**A.** pEC50 (SARS-CoV-2; class symbols): > 6.00; pIC50 (SARS-CoV-2 3CL protease; given as class symbols): 5.00 to 6.00; pIC50 (SARS-CoV-2 3CL protease; RapidFire MS): 5.47

**Q.** With COc1ccc(Nc2nc(=O)n(CC3CCNC3=O)c(=O)n2Cc2cc(F)c(F)c(F)c2)cc1 (racemic) [Compound I-0301] as the molecule, how does the pEC50 (SARS-CoV-2; class symbols) read?
**A.** > 6.00

**Q.** And the pIC50 (SARS-CoV-2 3CL protease; given as class symbols)?
**A.** 5.00 to 6.00

**Q.** What about the pIC50 (SARS-CoV-2 3CL protease; RapidFire MS) of the same molecule?
**A.** 5.42

**Q.** How did the pEC50 (SARS-CoV-2; class symbols) turn out when Cn1cnc(Cn2c(=O)nc(Nc3cc4cn(CC5CCO5)nc4cc3Cl)n(Cc3cc(Cl)c(F)cc3F)c2=O)n1 (racemic) [II-0408] was run?
**A.** 5.00 to 6.00

**Q.** And the pIC50 (SARS-CoV-2 3CL protease; given as class symbols)?
**A.** > 7.00

**Q.** Cn1cnc(Cn2c(=O)nc(Nc3cc4cn(CC5CCCO5)nc4cc3Cl)n(Cc3cc(Cl)c(F)cc3F)c2=O)n1 (racemic) [II-0409] was tested. Which pEC50 (SARS-CoV-2; class symbols) did it give?
**A.** 5.00 to 6.00

**Q.** What about the pIC50 (SARS-CoV-2 3CL protease; given as class symbols) of the same molecule?
**A.** > 7.00

**Q.** With Cc1nc2cc(Cl)c(Nc3nc(=O)n(Cc4ccc[nH]c4=O)c(=O)n3Cc3ccc(F)c(Cl)c3)cc2n1C [Compound I-0007] as the molecule, how does the pEC50 (SARS-CoV-2; class symbols) read?
**A.** 5.00 to 6.00

**Q.** And the pIC50 (SARS-CoV-2 3CL protease; given as class symbols)?
**A.** > 7.00

**Q.** What does the source list for Cn1cc2cc(Nc3nc(=O)n(Cc4ccc[nH]c4=O)c(=O)n3Cc3cc(F)cc(Cl)c3)c(Cl)cc2n1 [Compound I-0008]?
**A.** pEC50 (SARS-CoV-2; class symbols): 5.00 to 6.00; pIC50 (SARS-CoV-2 3CL protease; given as class symbols): > 7.00

**Q.** Which results are given for Cn1cc2cc(Nc3nc(=O)n(Cc4ccc[nH]c4=O)c(=O)n3Cc3cc(F)c(F)cc3F)c(Cl)cc2n1 [Compound I-0009]?
**A.** pEC50 (SARS-CoV-2; class symbols): > 6.00; pIC50 (SARS-CoV-2 3CL protease; given as class symbols): > 7.00

**Q.** N#Cc1cc(Cn2c(Nc3cc4c(cc3Cl)OCC4)nc(=O)n(Cc3ccc[nH]c3=O)c2=O)cc(F)c1F [Compound I-0011] was tested. Which pEC50 (SARS-CoV-2; class symbols) did it give?
**A.** > 6.00

**Q.** What about the pIC50 (SARS-CoV-2 3CL protease; given as class symbols) of the same molecule?
**A.** > 7.00

**Q.** Which results are given for Cn1cc2cc(Nc3nc(=O)n(Cc4ccc[nH]c4=O)c(=O)n3Cc3cc(F)c(F)c(C#N)c3)c(Cl)cc2n1 [Compound I-0012]?
**A.** pEC50 (SARS-CoV-2; class symbols): 5.00 to 6.00; pIC50 (SARS-CoV-2 3CL protease; given as class symbols): > 7.00

**Q.** Which results are given for N#Cc1cc(Cn2c(Nc3cc4c(cc3Cl)OCC4)nc(=O)n(Cc3ccc[nH]c3=O)c2=O)ccc1F [Compound I-0013]?
**A.** pEC50 (SARS-CoV-2; class symbols): 5.00 to 6.00; pIC50 (SARS-CoV-2 3CL protease; given as class symbols): > 7.00

**Q.** Which results are given for O=c1[nH]cccc1Cn1c(=O)nc(Nc2cc3c(cc2Cl)OCC3)n(Cc2cc(F)c(F)cc2F)c1=O [Compound I-0016]?
**A.** pEC50 (SARS-CoV-2; class symbols): > 6.00; pIC50 (SARS-CoV-2 3CL protease; given as class symbols): > 7.00

**Q.** How did the pEC50 (SARS-CoV-2; class symbols) turn out when O=c1[nH]cccc1Cn1c(=O)nc(Nc2ccc3c(c2)CCCO3)n(Cc2cc(F)c(F)c(F)c2)c1=O [Compound I-0019] was run?
**A.** 5.00 to 6.00

**Q.** And the pIC50 (SARS-CoV-2 3CL protease; given as class symbols)?
**A.** > 7.00

**Q.** What does the source list for COc1ccc(Nc2nc(=O)n(Cc3ccc[nH]c3=O)c(=O)n2Cc2cc(F)c(F)c(F)c2)cc1 [Compound I-0020]?
**A.** pEC50 (SARS-CoV-2; class symbols): 5.00 to 6.00; pIC50 (SARS-CoV-2 3CL protease; given as class symbols): > 7.00

**Q.** Which results are given for O=c1[nH]cccc1Cn1c(=O)nc(Nc2ccc3c(c2)CCO3)n(Cc2cc(F)c(F)c(F)c2)c1=O [Compound I-0025]?
**A.** pEC50 (SARS-CoV-2; class symbols): 5.00 to 6.00; pIC50 (SARS-CoV-2 3CL protease; given as class symbols): > 7.00

**Q.** Which results are given for COc1ccc(Nc2nc(=O)n(Cc3ccc[nH]c3=O)c(=O)n2Cc2cc(F)c(F)c(F)c2)c(F)c1 [Compound I-0026]?
**A.** pEC50 (SARS-CoV-2; class symbols): 5.00 to 6.00; pIC50 (SARS-CoV-2 3CL protease; given as class symbols): > 7.00

**Q.** With O=c1[nH]cccc1Cn1c(=O)nc(Nc2cccc3[nH]ccc23)n(Cc2cc(F)c(F)c(F)c2)c1=O [Compound I-0031] as the molecule, how does the pEC50 (SARS-CoV-2; CellTiter-Glo 2.0) read?
**A.** 5.39

**Q.** And the pEC50 (SARS-CoV-2; class symbols)?
**A.** 5.00 to 6.00

**Q.** And the pIC50 (SARS-CoV-2 3CL protease; given as class symbols)?
**A.** 6.00 to 7.00

**Q.** What about the pIC50 (SARS-CoV-2 3CL protease; RapidFire MS) of the same molecule?
**A.** 6.89

**Q.** What does the source list for CS(=O)(=O)c1ccc(Nc2nc(=O)n(Cc3ccc[nH]c3=O)c(=O)n2Cc2cc(F)c(F)c(F)c2)cc1 [Compound I-0033]?
**A.** pEC50 (SARS-CoV-2; class symbols): > 6.00; pIC50 (SARS-CoV-2 3CL protease; given as class symbols): 5.00 to 6.00; pIC50 (SARS-CoV-2 3CL protease; RapidFire MS): 5.25

**Q.** With O=C(O)c1ccc(Nc2nc(=O)n(Cc3ccc[nH]c3=O)c(=O)n2Cc2cc(F)c(F)c(F)c2)cc1 [Compound I-0035] as the molecule, how does the pEC50 (SARS-CoV-2; class symbols) read?
**A.** > 6.00

**Q.** What about the pIC50 (SARS-CoV-2 3CL protease; given as class symbols) of the same molecule?
**A.** 5.00 to 6.00

**Q.** And the pIC50 (SARS-CoV-2 3CL protease; RapidFire MS)?
**A.** 5.46

**Q.** How did the pEC50 (SARS-CoV-2; class symbols) turn out when O=c1[nH]cccc1Cn1c(=O)nc(NC2CCS(=O)(=O)CC2)n(Cc2cc(F)c(F)c(F)c2)c1=O [Compound I-0038] was run?
**A.** > 6.00

**Q.** What about the pIC50 (SARS-CoV-2 3CL protease; given as class symbols) of the same molecule?
**A.** 5.00 to 6.00

**Q.** And the pIC50 (SARS-CoV-2 3CL protease; RapidFire MS)?
**A.** 5.89

**Q.** What does the source list for COc1ccc(Nc2nc(=O)n(Cc3ccc[nH]c3=O)c(=O)n2Cc2cc(F)c(F)c(F)c2)c(OC)c1 [Compound I-0042]?
**A.** pEC50 (SARS-CoV-2; class symbols): 5.00 to 6.00; pIC50 (SARS-CoV-2 3CL protease; given as class symbols): > 7.00

**Q.** How did the pEC50 (SARS-CoV-2; class symbols) turn out when CN(C)C(=O)c1ccc(Cn2c(=O)nc(Nc3cc4c(cc3Cl)OCC4)n(Cc3cc(F)c(F)c(F)c3)c2=O)c(=O)[nH]1 [Compound I-0064] was run?
**A.** 5.00 to 6.00

**Q.** And the pIC50 (SARS-CoV-2 3CL protease; given as class symbols)?
**A.** > 7.00

**Q.** Which “coronavirus replication inhibitory activity” value (SARS-CoV-2; at concentrations up to 50 μM, tested as in Test Example 1 (Reference Example 1)) does the source give for Cc1ccc(Cn2c(=O)nc(Nc3cccc(C(F)(F)F)c3)n(Cc3ccc(Cl)c(Cl)c3)c2=O)cc1 [Compound I-066, reference compound] here?
**A.** did not show coronavirus replication inhibitory activity

**Q.** With CN(C)C(=O)c1ccc(Cn2c(=O)nc(Nc3cc4cn(CC(F)F)nc4cc3Cl)n(Cc3cc(F)c(F)c(F)c3)c2=O)c(=O)[nH]1 [Compound I-0066] as the molecule, how does the pEC50 (SARS-CoV-2; class symbols) read?
**A.** 5.00 to 6.00

**Q.** What about the pIC50 (SARS-CoV-2 3CL protease; given as class symbols) of the same molecule?
**A.** > 7.00

**Q.** COc1ccc(Nc2nc(=O)n(Cc3cc(Cl)c[nH]c3=O)c(=O)n2Cc2cc(F)c(F)c(F)c2)cc1 [Compound I-0069] was tested. Which pEC50 (SARS-CoV-2; class symbols) did it give?
**A.** 5.00 to 6.00

**Q.** And the pIC50 (SARS-CoV-2 3CL protease; given as class symbols)?
**A.** > 7.00

**Q.** How did the pEC50 (SARS-CoV-2; class symbols) turn out when Cn1cc2cc(Nc3nc(=O)n(Cc4cc(Cl)c[nH]c4=O)c(=O)n3Cc3cc(F)c(F)c(F)c3)c(Cl)cc2n1 [Compound I-0077] was run?
**A.** > 6.00

**Q.** And the pIC50 (SARS-CoV-2 3CL protease; given as class symbols)?
**A.** > 7.00
